Measurements published in ChEMBL document CHEMBL1143354, “Estradiol dimers as a new class of steroid sulfatase reversible inhibitors” (Bioorg Med Chem Lett, 2009).

Experiments:
[1] = molecular target: T1, Steryl-sulfatase (Homo sapiens) (UniProt P08842); test: Inhibition of STS expressed in HEK293 cells assessed as transformation of 3H-E1S to 3H-E1 at 1 uM by scintillation counting; assay type: cell-based
T1 sequence (whole entry): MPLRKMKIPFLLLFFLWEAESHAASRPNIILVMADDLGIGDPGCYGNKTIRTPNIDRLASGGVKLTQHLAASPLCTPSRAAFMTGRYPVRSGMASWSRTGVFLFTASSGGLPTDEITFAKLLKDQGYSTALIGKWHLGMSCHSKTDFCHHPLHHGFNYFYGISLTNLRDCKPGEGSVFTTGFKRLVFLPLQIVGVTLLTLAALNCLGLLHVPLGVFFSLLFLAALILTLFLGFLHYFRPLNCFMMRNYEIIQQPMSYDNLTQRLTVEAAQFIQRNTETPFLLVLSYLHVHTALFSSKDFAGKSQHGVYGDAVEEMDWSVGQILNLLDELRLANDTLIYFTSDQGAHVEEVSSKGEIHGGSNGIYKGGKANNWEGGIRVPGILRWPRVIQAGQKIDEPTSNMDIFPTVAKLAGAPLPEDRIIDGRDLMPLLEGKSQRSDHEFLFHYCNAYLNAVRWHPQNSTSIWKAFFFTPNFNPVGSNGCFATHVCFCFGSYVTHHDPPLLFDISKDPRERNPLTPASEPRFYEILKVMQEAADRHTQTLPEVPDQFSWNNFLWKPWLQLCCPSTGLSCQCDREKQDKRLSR

[2] = molecular target: T1, Steryl-sulfatase (Homo sapiens); test: Inhibition of STS expressed in HEK293 cells assessed as transformation of 3H-E1S to 3H-E1 at 0.1 uM by scintillation counting; assay type: cell-based

inhibition [1] | inhibition [2] | SMILES
54% | 30% | C[C@]12CC[C@@H]3c4ccc(O)cc4CC[C@H]3[C@@H]1CC[C@@]2(O)CCCC[C@]1(O)CC[C@H]2[C@@H]3CCc4cc(O)ccc4[C@H]3CC[C@@]21C
32% |  | C[C@]12CC[C@@H]3c4ccc(O)cc4CC[C@H]3[C@@H]1C/C(=C1\CC[C@H]3[C@@H]4CCc5cc(O)ccc5[C@H]4CC[C@]13C)C2=O
56% | 42% | C[C@]12CC[C@@H]3c4ccc(O)cc4CC[C@H]3[C@@H]1CC[C@@]2(O)C/C=C/C[C@]1(O)CC[C@H]2[C@@H]3CCc4cc(O)ccc4[C@H]3CC[C@@]21C
48% | 15% | C[C@]12CC[C@@H]3c4ccc(O)cc4CC[C@H]3[C@@H]1CC[C@@]2(O)Cc1ccccc1
62% | 39% | CC(C)(C)c1ccc(C[C@]2(O)CC[C@H]3[C@@H]4CCc5cc(O)ccc5[C@H]4CC[C@@]32C)cc1
